Activity calls are given as the source filed them.
What was measured:
[1] = target: Glucose-6-phosphate 1-dehydrogenase (Homo sapiens, UniProt P11413); test: inhibition of Homo sapiens G6PD, dose series – biochemical, fluorescence, selectivity assay for P. falciparum G6PD inhibitor project, dose response (AID 504792); format: functional
Genome polyprotein = Genome polyprotein (dengue virus type 2, UniProt P29990); test: flavivirus cap methylation enzyme inhibition – biochemical, confirmation dose response, primary screen (AID 588689); format: functional
[2] = target: Peroxisome proliferator-activated receptor gamma/Nuclear receptor coactivator 2 (Homo sapiens, UniProt P37231); test: TR-FRET dose response biochemical High Throughput Screening assay for agonists of the steroid receptor coactivator 2 (SRC-2) recruitment by the peroxisome proliferator-activated receptor gamma (PPAR gamma): non-selective agonists. [Related pubchem assays: 1297, 1032 ]; format: functional
[3] = target: Peroxisome proliferator-activated receptor gamma/Nuclear receptor coactivator 1 (Homo sapiens, UniProt P37231); test: TR-FRET dose response biochemical High Throughput Screening assay for agonists of the steroid receptor coactivator 1 (SRC-1) recruitment by the peroxisome proliferator-activated receptor gamma (PPAR gamma): non-selective agonists. [Related pubchem assays (depositor defined):AID1300, AID1808, AID504735, AID631]; format: protein assay
[4] = target: Peroxisome proliferator-activated receptor gamma/Nuclear receptor coactivator 3 (Homo sapiens, UniProt P37231); test: TR-FRET dose response biochemical High Throughput Screening assay for agonists of the steroid receptor coactivator 3 (SRC-3) recruitment by the peroxisome proliferator-activated receptor gamma (PPAR gamma): non-selective agonists. [Related pubchem assays: 1301 (Confirmation screen.), 1048 (Primary screen.)]; format: functional
Aminopeptidase N = target: T1, Aminopeptidase N (Plasmodium falciparum FcB1/Columbia, UniProt O96935); test: malaria alanyl aminopeptidase activity blockers – biochemical, fluorogenic H-Leu-NHMec substrate, 1536-well (AID 1445); design: species or system Plasmodium falciparum 3D7, 3D7
T1 sequence (O96935 whole entry): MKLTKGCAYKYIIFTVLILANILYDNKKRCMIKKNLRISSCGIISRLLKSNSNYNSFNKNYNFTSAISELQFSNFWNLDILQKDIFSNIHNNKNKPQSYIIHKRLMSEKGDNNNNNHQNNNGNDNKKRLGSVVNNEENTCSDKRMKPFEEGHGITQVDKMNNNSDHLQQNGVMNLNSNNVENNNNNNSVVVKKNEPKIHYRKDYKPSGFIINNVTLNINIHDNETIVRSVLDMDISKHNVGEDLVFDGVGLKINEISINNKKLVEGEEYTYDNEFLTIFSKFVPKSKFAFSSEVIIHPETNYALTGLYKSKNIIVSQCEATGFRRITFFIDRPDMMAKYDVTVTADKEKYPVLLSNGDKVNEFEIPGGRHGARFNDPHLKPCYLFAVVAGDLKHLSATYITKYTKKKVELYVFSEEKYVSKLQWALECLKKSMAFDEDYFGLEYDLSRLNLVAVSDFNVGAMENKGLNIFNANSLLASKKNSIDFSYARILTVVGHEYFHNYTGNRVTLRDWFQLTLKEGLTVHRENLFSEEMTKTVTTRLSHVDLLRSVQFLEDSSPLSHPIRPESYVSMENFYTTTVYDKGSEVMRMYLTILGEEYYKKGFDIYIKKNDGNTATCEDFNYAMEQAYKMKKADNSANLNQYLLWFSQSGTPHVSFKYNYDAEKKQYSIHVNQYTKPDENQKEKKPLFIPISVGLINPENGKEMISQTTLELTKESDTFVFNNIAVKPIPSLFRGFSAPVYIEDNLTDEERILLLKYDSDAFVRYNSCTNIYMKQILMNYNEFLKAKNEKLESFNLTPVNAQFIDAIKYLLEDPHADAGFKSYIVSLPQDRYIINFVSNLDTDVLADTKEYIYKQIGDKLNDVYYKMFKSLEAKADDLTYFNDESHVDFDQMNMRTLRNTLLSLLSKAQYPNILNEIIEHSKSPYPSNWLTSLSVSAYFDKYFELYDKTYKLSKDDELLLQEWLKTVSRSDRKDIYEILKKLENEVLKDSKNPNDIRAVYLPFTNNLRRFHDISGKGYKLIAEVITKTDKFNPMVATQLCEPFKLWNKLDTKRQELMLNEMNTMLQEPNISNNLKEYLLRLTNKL

SUMO-activating enzyme = SUMO-activating enzyme (Homo sapiens, UniProt Q9UBT2); test: blockers of UBC9-mediated SUMO conjugation – biochemical, AlphaScreen, SUMOylation inhibitor project, confirmation (AID 2018); format: functional
[5] = target: T2, Corticotropin-releasing factor receptor 2/Corticotropin-releasing factor-binding protein (Homo sapiens, UniProt P24387+Q13324); test: Dose Response confirmation of uHTS hits for small molecule antagonists of the CRF-binding protein and CRF-R2 receptor complex.; format: functional; conditions: read-out: IC50_Mean
T2 sequence (Q13324 whole entry): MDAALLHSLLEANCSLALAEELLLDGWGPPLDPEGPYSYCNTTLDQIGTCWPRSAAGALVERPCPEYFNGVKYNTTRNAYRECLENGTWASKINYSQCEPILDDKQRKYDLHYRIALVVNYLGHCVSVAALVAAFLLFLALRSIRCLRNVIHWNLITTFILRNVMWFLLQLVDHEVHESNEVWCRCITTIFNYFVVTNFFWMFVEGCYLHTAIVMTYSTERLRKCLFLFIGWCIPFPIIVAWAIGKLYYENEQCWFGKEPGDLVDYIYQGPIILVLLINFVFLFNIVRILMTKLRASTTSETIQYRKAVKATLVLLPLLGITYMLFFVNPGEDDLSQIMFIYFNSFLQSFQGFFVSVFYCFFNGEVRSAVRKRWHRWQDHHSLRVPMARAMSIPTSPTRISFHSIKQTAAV
T2 sequence (P24387 whole entry): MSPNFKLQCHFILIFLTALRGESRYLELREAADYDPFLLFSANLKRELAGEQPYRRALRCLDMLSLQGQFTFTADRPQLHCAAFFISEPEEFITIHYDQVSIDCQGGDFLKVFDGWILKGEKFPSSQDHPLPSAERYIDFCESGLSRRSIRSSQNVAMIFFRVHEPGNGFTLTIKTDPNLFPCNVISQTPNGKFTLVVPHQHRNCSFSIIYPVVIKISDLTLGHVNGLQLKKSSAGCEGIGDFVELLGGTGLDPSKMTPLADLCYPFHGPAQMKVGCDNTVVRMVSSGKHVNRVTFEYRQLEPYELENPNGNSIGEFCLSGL

[6] = target: T2, Corticotropin-releasing factor receptor 2/Corticotropin-releasing factor-binding protein; test: activators of CRF receptor 2 with binding protein – uHTS hits, confirmation (AID 602473); format: functional; conditions: read-out: EC50_Mean
[7] = target: Voltage-dependent T-type calcium channel subunit alpha-1H (Homo sapiens, UniProt O95180); format: functional;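 further: channel activity triggered by adding a high calcium stimulation buffer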
Coagulation factor XII = target: T3, Coagulation factor XII (Homo sapiens, UniProt P00748); format: functional;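 further: activated factor XIIa alpha cleaving a fluorogenic AMC peptide substrate; inhibitor potency from loss of enzyme activity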
T3 sequence (P00748 whole entry): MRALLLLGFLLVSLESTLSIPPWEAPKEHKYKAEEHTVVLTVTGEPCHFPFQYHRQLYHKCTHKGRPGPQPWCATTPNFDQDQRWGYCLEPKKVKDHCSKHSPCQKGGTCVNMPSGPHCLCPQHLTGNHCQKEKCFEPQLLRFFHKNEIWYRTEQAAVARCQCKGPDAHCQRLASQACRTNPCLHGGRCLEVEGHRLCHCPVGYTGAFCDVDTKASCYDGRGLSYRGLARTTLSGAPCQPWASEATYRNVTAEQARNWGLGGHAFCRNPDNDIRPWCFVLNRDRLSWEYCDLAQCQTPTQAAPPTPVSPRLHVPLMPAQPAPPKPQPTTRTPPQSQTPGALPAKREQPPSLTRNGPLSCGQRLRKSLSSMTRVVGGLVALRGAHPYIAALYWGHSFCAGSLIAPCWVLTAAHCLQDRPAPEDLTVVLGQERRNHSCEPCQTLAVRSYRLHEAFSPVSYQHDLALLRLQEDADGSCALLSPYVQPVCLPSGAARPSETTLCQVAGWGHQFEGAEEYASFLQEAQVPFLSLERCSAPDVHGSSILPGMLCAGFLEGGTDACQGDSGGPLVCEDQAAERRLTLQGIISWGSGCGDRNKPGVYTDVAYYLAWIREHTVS

Cytochrome P450 2C19 = Cytochrome P450 2C19 (Homo sapiens, UniProt P33261); test: Cytochrome panel assay with activity outcomes. Panel member name: p450-cyp2c19 Compounds with AC50 equal or less than 10 uM are considered active; format: functional; conditions: read-out: AC50
[8] = THP-1 cell cytotoxicity, dose response, cytotoxicity control for non-replicating M. tuberculosis project (AID 489025); format: functional
cells = format: functional
[9] = Trypanosoma cruzi growth suppression in host cells – NIH3T3 host cells, beta-gal luminescence, confirmation (AID 2044); format: functional, cell-based;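 further: intracellular parasites grown in NIH/3T3 mouse fibroblasts as host cells; luminescent beta-galactosidase reporter signal from transgenic T. cruzi replicating inside host cells; inhibitors lower the luminescence signal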
[10] = HepG2 cell cytotoxicity, dose response, cytotoxicity control for non-replicating M. tuberculosis project (AID 489018); format: functional; conditions: Mycobacterium tuberculosis
[11] = NIH3T3 cell viability loss – ATP luminescence, mouse fibroblasts, counter-screen, dose response (AID 2010); format: functional, cell-based;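 further: cells exposed to compound for about 90 hours before reading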
[12] = target: T4, Small ubiquitin-related modifier 1 (Homo sapiens, UniProt P63165); test: SUMO1 protein interaction blockers, potency – biochemical, fluorescence polarization, uHTS hits, dose response (AID 624382); format: functional; conditions: read-out: IC50_Mean
[13] = target: T4, Small ubiquitin-related modifier 1; test: SUMO1 protein-protein binding blockers, potency – biochemical, FRET, dose response (AID 624383); format: functional; conditions: read-out: IC50_Mean
[14] = microbe, parasite or virus in culture; format: functional; conditions: Mycobacterium tuberculosis
[15] = HIV-1 Vif–A3G interaction blockers – biochemical, TR-FRET, GST-Vif 1-94, biotin-A3G peptide, dose response retest, primary screen (AID 1117319); format: functional;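 further: TR-FRET signal of purified GST-Vif binding a biotinylated A3G peptide; inhibitors lower the FRET signal by blocking Vif and A3G binding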
Protein Tat = target: T5, Protein Tat (Human immunodeficiency virus type 1 group M subtype B (isolate HXB2)(HIV-1), UniProt P04608); format: functional;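 further: tat binding to TAR RNA read out by fluorescence polarization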
T5 sequence (P04608 whole entry): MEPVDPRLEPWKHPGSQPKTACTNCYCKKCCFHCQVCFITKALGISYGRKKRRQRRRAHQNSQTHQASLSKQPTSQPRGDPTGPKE

Cytochrome P450 2D6 = Cytochrome P450 2D6 (Homo sapiens, UniProt P10635);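 further: CYP2D6 member of a cytochrome P450 panel assay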
[16] = viability loss of HPDE-C7K cells – cell-based, fluorescence, HTS, primary screen (AID 431); format: functional; conditions: Homo sapiens
[17] = HPDE-C7 pancreatic duct cell viability loss – fluorescence, HTS (AID 430); format: functional, cell-based; conditions: Homo sapiens

Chain of Voltage-dependent T-type calcium channel subunit alpha-1H (O95180 whole entry): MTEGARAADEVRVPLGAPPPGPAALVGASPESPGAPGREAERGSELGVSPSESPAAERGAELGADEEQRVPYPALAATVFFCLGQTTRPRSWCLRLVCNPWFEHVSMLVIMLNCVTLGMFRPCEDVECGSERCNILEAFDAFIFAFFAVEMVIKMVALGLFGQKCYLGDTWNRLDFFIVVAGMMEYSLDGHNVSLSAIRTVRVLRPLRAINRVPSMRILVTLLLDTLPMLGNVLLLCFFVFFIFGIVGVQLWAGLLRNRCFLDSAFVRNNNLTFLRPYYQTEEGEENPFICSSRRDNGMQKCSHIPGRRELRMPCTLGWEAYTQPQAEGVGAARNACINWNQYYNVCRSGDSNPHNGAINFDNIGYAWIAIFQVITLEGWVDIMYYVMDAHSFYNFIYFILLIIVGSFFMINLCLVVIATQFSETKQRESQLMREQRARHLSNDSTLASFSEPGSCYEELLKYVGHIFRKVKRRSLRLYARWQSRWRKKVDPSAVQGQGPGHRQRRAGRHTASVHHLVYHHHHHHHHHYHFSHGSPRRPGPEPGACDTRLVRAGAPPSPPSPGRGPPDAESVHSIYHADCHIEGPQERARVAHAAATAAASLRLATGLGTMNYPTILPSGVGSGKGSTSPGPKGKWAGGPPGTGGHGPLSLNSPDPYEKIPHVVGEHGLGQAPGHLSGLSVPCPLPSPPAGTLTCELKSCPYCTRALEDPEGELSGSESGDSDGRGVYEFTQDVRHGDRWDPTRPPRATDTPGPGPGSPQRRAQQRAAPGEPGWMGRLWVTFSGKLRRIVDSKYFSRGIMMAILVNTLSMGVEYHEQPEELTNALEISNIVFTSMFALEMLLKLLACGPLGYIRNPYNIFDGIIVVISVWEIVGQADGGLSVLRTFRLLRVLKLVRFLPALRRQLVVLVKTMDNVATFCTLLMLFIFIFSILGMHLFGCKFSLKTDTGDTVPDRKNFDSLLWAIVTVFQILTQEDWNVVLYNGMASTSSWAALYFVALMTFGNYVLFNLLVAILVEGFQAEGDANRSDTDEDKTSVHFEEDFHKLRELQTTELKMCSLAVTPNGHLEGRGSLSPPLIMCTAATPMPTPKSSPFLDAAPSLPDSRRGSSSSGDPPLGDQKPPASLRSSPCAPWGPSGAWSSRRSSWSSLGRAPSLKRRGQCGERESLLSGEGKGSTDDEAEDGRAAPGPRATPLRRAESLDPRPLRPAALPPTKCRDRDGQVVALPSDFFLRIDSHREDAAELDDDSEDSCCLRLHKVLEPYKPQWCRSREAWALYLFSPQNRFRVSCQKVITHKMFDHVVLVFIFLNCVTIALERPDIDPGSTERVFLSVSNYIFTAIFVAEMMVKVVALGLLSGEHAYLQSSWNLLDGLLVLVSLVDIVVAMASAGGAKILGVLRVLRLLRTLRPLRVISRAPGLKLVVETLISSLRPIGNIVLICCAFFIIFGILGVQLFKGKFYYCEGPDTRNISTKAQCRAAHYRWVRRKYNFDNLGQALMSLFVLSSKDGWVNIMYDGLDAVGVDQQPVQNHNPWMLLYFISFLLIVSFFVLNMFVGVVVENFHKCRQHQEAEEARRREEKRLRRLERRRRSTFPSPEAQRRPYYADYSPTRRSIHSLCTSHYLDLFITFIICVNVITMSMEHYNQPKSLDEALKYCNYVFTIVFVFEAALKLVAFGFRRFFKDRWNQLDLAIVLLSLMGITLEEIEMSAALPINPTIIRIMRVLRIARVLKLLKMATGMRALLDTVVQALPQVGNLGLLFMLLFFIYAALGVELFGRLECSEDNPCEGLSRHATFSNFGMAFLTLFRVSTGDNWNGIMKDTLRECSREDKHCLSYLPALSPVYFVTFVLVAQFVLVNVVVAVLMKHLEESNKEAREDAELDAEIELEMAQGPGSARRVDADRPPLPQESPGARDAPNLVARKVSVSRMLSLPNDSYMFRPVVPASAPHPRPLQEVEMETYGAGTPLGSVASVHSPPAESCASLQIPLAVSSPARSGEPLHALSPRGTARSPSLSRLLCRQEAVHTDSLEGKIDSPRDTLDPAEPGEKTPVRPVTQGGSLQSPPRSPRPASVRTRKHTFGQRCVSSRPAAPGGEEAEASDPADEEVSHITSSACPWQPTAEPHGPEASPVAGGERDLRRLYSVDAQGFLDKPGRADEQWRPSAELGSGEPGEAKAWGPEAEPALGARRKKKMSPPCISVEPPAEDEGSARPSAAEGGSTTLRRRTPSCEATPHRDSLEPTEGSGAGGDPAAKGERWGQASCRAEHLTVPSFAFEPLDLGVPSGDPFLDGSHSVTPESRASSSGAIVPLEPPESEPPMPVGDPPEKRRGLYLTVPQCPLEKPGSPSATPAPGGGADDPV
Chain of Peroxisome proliferator-activated receptor gamma/Nuclear receptor coactivator 1 (P37231 whole entry): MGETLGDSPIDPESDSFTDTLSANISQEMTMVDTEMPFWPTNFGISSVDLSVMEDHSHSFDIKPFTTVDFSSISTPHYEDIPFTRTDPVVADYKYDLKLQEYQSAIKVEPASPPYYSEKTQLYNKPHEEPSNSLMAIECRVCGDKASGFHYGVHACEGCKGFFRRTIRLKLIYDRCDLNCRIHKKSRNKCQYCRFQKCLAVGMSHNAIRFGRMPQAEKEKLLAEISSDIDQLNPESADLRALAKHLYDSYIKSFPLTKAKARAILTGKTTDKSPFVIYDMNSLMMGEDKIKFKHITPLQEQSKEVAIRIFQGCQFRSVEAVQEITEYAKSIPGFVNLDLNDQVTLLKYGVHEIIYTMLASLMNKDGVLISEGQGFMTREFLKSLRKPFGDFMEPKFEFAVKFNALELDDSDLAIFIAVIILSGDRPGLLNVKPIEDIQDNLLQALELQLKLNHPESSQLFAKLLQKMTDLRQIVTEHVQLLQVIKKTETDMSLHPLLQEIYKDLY
Chain of Peroxisome proliferator-activated receptor gamma/Nuclear receptor coactivator 1 (Q15788 whole entry, further chain): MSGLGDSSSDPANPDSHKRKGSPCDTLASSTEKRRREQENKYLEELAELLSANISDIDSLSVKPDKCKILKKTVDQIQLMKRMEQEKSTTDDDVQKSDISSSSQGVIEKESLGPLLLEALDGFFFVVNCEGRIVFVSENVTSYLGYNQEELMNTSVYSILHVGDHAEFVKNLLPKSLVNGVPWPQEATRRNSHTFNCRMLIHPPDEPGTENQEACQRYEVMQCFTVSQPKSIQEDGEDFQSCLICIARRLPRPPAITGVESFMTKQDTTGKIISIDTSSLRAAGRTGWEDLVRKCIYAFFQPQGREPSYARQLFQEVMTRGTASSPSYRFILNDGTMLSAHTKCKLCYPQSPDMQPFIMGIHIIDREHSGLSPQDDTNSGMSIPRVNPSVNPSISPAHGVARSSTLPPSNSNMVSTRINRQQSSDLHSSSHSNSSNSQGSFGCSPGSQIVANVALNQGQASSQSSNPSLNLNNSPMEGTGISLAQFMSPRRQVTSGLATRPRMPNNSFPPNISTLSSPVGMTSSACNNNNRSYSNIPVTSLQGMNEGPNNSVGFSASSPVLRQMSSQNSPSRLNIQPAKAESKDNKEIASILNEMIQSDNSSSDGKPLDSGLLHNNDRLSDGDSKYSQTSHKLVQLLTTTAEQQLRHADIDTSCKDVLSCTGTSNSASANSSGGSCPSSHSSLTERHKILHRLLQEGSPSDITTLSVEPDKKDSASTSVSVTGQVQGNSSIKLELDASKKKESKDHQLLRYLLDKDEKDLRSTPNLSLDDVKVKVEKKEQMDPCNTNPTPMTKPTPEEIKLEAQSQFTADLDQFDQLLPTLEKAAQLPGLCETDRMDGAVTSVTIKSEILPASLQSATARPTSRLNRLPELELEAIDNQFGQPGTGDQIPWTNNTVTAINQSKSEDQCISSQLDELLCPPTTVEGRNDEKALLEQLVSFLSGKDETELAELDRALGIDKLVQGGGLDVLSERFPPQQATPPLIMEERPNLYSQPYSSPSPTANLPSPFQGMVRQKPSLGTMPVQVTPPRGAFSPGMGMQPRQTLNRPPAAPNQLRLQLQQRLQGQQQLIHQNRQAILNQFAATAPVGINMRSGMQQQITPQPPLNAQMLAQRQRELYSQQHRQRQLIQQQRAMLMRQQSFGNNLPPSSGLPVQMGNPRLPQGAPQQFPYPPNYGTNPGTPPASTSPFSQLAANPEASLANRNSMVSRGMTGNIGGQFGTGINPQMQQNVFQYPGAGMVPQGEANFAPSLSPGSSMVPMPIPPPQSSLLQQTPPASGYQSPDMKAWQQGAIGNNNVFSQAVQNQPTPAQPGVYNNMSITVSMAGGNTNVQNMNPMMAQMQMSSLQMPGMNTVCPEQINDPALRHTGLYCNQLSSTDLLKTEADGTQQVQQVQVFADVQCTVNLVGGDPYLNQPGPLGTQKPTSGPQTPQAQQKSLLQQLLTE
T4 sequence (P63165 whole entry): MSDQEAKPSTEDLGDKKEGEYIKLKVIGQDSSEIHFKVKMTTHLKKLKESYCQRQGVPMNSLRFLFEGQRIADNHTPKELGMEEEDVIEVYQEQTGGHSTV
Chain of Cytochrome P450 2D6 (P10635 whole entry): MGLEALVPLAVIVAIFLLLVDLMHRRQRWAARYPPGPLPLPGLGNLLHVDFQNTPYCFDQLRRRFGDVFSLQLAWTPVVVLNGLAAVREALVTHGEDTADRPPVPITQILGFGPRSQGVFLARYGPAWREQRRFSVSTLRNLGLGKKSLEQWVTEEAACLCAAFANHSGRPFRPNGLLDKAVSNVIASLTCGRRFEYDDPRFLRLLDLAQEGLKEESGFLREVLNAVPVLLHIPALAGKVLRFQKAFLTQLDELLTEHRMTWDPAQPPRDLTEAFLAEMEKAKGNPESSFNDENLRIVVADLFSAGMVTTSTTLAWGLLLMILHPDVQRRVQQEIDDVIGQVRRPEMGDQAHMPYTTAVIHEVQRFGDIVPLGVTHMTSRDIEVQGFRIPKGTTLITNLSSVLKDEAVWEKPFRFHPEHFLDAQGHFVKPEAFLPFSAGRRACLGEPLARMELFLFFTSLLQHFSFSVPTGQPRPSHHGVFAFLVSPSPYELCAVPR

COc1c2ccoc2c(OCC=C(C)C)c2oc(=O)ccc12 [PHELLOPTERIN]
IC50 [1]: > 80 µM (inactive)

O=C(O)Cn1cc(C=C2C(=O)NC(=O)NC2=O)c2ccccc21
IC50 (Genome polyprotein): > 100 µM (active)

O=C(CSc1ncnc2c1oc1ccccc12)Nc1cccc(Cl)c1
EC50 [2]: 23.7 µM (not active)
EC50 [3]: 37.1 µM (inactive)
EC50 [4]: > 79.4 µM (not active)

CCNS(=O)(=O)c1ccc(CCC(=O)NCc2ccc(C)cc2)cc1
IC50 (Aminopeptidase N): 21.8 µM (active)

O=C(Nc1ccccc1O)c1cc(S(=O)(=O)N2CCOCC2)c(Cl)cc1Cl
IC50 (SUMO-activating enzyme): > 100 µM (inactive)

CC(C)(C)n1nnnc1C(c1ccc(Cl)cc1)N(Cc1cccnc1)Cc1ccco1 (configuration not stated)
IC50 [5]: > 47.1 µM (inactive)
EC50 [6]: > 53 µM (inactive)
EC50 [7]: 3.31 µM (active)

Cc1cccc(NC(=O)c2cc(N3C(=O)CCC3=O)ccc2Cl)n1
IC50 (Coagulation factor XII): > 50 µM (inactive)
AC50 (Cytochrome P450 2C19): 28.2 µM (inconclusive)

COC(=O)c1sc(NC(=O)c2ccc([N+](=O)[O-])o2)c(C#N)c1C
CC50 [8]: 18.8 µM (active)
IC50 (cells): 6.19 µM (active)
EC50 [9]: 255 nM (active)
CC50 [10]: > 20 µM (active)
EC50 [11]: > 60 µM (not active)

COc1ccc(-c2nnc(Nc3ccc(S(=O)(=O)Nc4nccs4)cc3)c3ccccc23)cc1
EC50 [2]: 9.18 µM (active)
IC50 [5]: > 47.1 µM (inactive)
IC50 [12]: > 66.6 µM (inactive)
EC50 [3]: 14.9 µM (inactive)
IC50 [13]: 18.2 µM (active)
EC50 [6]: > 53 µM (inactive)
EC50 [4]: > 79.4 µM (not active)

CCn1c(=O)cc(SCC(=O)NCc2ccco2)c2ccccc21
EC50 [2]: > 79.4 µM (not active)
EC50 [3]: > 79.4 µM (inactive)
EC50 [4]: > 79.4 µM (not active)

Cc1cc2nc(C3CCN(CC4COc5ccccc5O4)CC3)[nH]c2cc1C (configuration not stated)
EC50 [7]: 4.9 µM (active)
CC50 [14]: 30.9 µM (active)

Cc1cccc(OCC(=O)Nc2nnc(-c3ccco3)s2)c1
EC50 [2]: > 26.5 µM (not active)
EC50 [3]: > 26.5 µM (inactive)
EC50 [4]: > 79.4 µM (not active)

NCCNC(=O)Cc1cccc(NC(=O)Cc2ccc(Nc3ncnc4c3ncn4[C@@H]3O[C@H](CO)[C@@H](O)[C@H]3O)cc2)c1
IC50 (Aminopeptidase N): 53.7 µM (active)

COc1cc(OC)cc(C(=O)N2CCN(Cc3ccccc3C(F)(F)F)CC2)c1
IC50 (Coagulation factor XII): > 50 µM (inactive)

c1cncc(-c2csc(NCc3ccco3)n2)c1
IC50 (Coagulation factor XII): > 50 µM (inactive)
IC50 [15]: > 100 µM (active)
IC50 (Protein Tat): > 100 µM (active)

Cc1nc2c(C(=O)NCc3ccc4c(c3)OCO4)cnn2c(O)c1Cc1ccccc1F
AC50 (Cytochrome P450 2D6): 25.1 µM (inconclusive)
EC50 [16]: 11.6 µM (active)
EC50 [17]: 9.68 µM (active)
EC50 [7]: 7.38 µM (active)

COc1cc(/C=N/NC(=O)c2cccnc2)ccc1OCC(=O)Nc1ccc(C)cc1
IC50 (Aminopeptidase N): 47.8 µM (active)

— ChEMBL document CHEMBL1201862, “PubChem BioAssay data set” (2004)
